Laboratory results: PMC8480776, “Selenium Derivatives as Promising Therapy for Chagas Disease: In Vitro and In Vivo Studies” (ACS Infectious Diseases, 2021)
Where two headings read alike, the source gives them in different places.

Experiments:
[1] = biological target: T1, human erythrocytes CuZn-SOD (Homo sapiens, UniProt P00441); assay: SOD enzymatic inhibition, CuZn-SOD; type: biochemical
T1 construct: commercial copper/zinc superoxide dismutase (Cu/Zn-SOD) from human erythrocytes (Sigma-Aldrich); purchased Sigma-Aldrich; host or cells: human erythrocytes (natural source)
T1 sequence (P00441 whole entry): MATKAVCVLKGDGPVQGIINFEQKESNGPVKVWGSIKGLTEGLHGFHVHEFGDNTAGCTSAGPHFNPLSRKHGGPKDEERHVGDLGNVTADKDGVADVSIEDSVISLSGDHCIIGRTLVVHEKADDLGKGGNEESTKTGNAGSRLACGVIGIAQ

[2] = test system: T. cruzi Arequipa strain; assay: In vivo trypanocidal activity on BALB/c mice (acute and chronic Chagas disease); parameters: species or system Trypanosoma cruzi
Method: (§1) Female BALB/c mice aged 10–12 weeks and with a size of 20–24 g were divided into five groups (n = 3 per group): 0, negative control group (uninfected and untreated mice); I, positive control group (infected and untreated mice); II, BZN group (infected mice treated with BZN); III, 26 group (infected mice treated with 26); and IV, 28 group (infected mice treated with 28).
Mice were infected by intraperitoneal injection of 5 × 10^5 BTs of T. cruzi Arequipa strain per mouse in 200 μL PBS.[42] Subsequently, the treatment was intraperitoneally administered (∼200 μL) once daily for 5 consecutive days.
(§2) The tested selenocompounds and BZN were prepared at 2 mg·mL^–1 in an aqueous suspension vehicle containing 5% (v/v) DMSO and 0.5% (w/v) hydroxypropyl methylcellulose, as previously reported.[52] Compounds (20 mg·kg^–1 per day) were administered for 5 consecutive days (total dosages of 100 mg·kg^–1), and vehicle only was administered in the negative and positive control groups. Treatments began when the infection was confirmed (9 dpi) for acute-phase-treated mice, and when it was established that the animals moved into the chronic phase (100 dpi, for chronic-phase-treated mice; Scheme 1).
[…]. Parasitemia was expressed as parasites·mL^–1.
Immunosuppression was performed by intraperitoneal injection of three doses of 200 mg·kg^–1 of ISOPAC CP at 3–4 day intervals (Scheme 1), as previously reported.[53] Mice were closely monitored for side effects or for secondary infections due to immunosuppression. Within 7 days after the last CP injection, parasitemia reactivation was determined by counting BTs according the procedure described for parasitemia in the acute phase.[42]
On 145 dpi, the mice were euthanized using CO2, followed by exsanguination via cardiac puncture, and blood was collected. […]. In addition, spleens were weighed to assess splenomegaly.[42]
DNA extraction of the post-mortem organs/tissues was performed using Wizard Genomic DNA Purification Kit,[41] and the extracted DNA was subjected to amplification by PCR based on the spliced leader (SL) intergenic region sequence of T. cruzi (for detailed description, see literature reported previously).[55] Finally, the PCR products were resolved by electrophoresis on a 2% agarose gel (containing GelRed nucleic gel stain) for 90 min at 90 V.
Circulating antibodies in serum against both antigens were quantitatively evaluated in triplicate by the ELISA test in 96-well plates using diluted serum samples (1:80 in PBS), as previously described.[41]

[3] = test system: T. cruzi epimastigotes, Tulahuen strain; assay: Screening against extracellular epimastigotes, Tulahuen strain; type: cell-based, Trypanosoma cruzi
[4] = test system: T. cruzi amastigotes, Arequipa strain; assay: Screening against intracellular amastigotes, Arequipa strain; type: cell-based, Trypanosoma cruzi
[5] = test system: T. cruzi trypomastigotes, Tulahuen strain; assay: Screening against bloodstream trypomastigotes, Tulahuen strain; type: cell-based, Trypanosoma cruzi
[6] = test system: T. cruzi trypomastigotes, SN3 strain; assay: Screening against bloodstream trypomastigotes, SN3 strain; type: cell-based, Trypanosoma cruzi
[7] = test system: T. cruzi amastigotes, SN3 strain; assay: Screening against intracellular amastigotes, SN3 strain; type: cell-based, Trypanosoma cruzi
[8] = test system: T. cruzi trypomastigotes, Arequipa strain; assay: Screening against bloodstream trypomastigotes, Arequipa strain; type: cell-based, Trypanosoma cruzi
[9] = test system: T. cruzi epimastigotes, Arequipa strain; assay: Screening against extracellular epimastigotes, Arequipa strain; type: cell-based, Trypanosoma cruzi
[10] = type: in vivo, BALB/c mice; conditions: variation vs control
Method: as §1, §2
Serum samples obtained from blood in several days post-infection (Scheme 1) were sent to the Biochemical Service (University of Granada) to measure a series of biochemical parameters with the commercial Cromakit using a clinical chemistry analyzer (BS-200, Shenzhen Mindray Biomedical Electronics Co., LTD), as previously described.[41]

[11] = test system: Vero cells; assay: Cytotoxicity test on Vero cells; type: cell-based; conditions: Chlorocebus sabaeus, 48 h + 24 h resazurin, read-out: Toxicity IC50 Vero cell
[12] = test system: T. cruzi amastigotes, Tulahuen strain; assay: Screening against intracellular amastigotes, Tulahuen strain; type: cell-based, Trypanosoma cruzi
[13] = test system: Vero cells infected with T. cruzi Arequipa strain; assay: Infection rate in Vero cells (infected cells), Arequipa strain; type: cell-based; conditions: Trypanosoma cruzi, 72 h of treatment
[14] = test system: T. cruzi epimastigotes, SN3 strain; assay: Screening against extracellular epimastigotes, SN3 strain; type: cell-based, Trypanosoma cruzi
[15] = test system: epimastigotes of T. cruzi Arequipa strain; assay: Flow cytometry analysis of nucleic acid levels (acridine orange); type: cell-based, Trypanosoma cruzi; conditions: IC25 concentrations, 72 h
[16] = test system: Trypanosoma cruzi Fe-SOD; assay: SOD enzymatic inhibition, Fe-SOD; type: biochemical
[17] = 20 mg·kg–1 per day i.p. 5 days from 9 dpi
[18] = 20 mg·kg–1 per day i.p. 5 days from 100 dpi
[19] = IC50 Vero cells/IC50 epimastigotes
[20] = IC50 Vero cells/IC50 amastigotes
[21] = IC50 Vero cells/IC50 trypomastigotes
[22] = treatment in acute phase, 15th dpi (2 days after treatment)
[23] = treatment in acute phase, necropsy day
[24] = treatment in chronic phase, 106th dpi (2 days after treatment)
[25] = treatment in chronic phase, necropsy day

## N#C[Se]c1ccc(NC(=O)c2ccco2)cc1 [Compound 28]
[1]
  IC50: > 100 µM
[2]; [17]
  anti-T. cruzi IgG levels (ELISA), acute phase treatment: lower IgG values than the treated with BZN at the beginning of the treatment
  splenomegaly reduction in comparison with untreated mice, acute phase treatment: 37%
[2]; 20 mg·kg–1 per day i.p. 5 days from 9 dpi, compared to untreated group
  parasitaemia reactivation after immunosuppression, acute phase treatment: approximately 95%
[2]; [18]
  anti-T. cruzi IgG levels (ELISA), chronic phase treatment: similar
  splenomegaly reduction in comparison with untreated mice, chronic phase treatment: 48%
[2]; 20 mg·kg–1 per day i.p. 5 days from 100 dpi, compared to untreated group
  parasitaemia reactivation after immunosuppression, chronic phase treatment: ~85%
[2]; 20 mg·kg–1 per day i.p. 5 days, necropsy 145 dpi
  parasite levels in target organs/tissues by PCR (in words): did not decrease enough parasite levels in the analyzed tissues
[2]; 20 mg·kg–1 per day i.p. for 5 days from 9 dpi
  parasitaemia profile during the acute phase: slight antiparasitic activity over the first month
[3]; [19]
  Selectivity index (SI), epimastigotes, Tulahuen strain: 19
[3]; Trypanosoma cruzi, TULAHUEN, 48 h + 24 h resazurin, read-out: Activity IC50, epimastigote form, Tulahuen strain
  IC50: 4.6 ± 0.3 µM
[4]; [20]
  selectivity index (SI), Arequipa strain, am. forms: 28
[4]; Trypanosoma cruzi, amastigotes in Vero cells, 72 h, read-out: activity IC50, Arequipa strain, am. forms
  IC50: 3.2 ± 0.4 µM
[5]; [21]
  selectivity index (SI), Tulahuen strain, trypom. forms: 50
[5]; Trypanosoma cruzi, TULAHUEN, bloodstream trypomastigotes, 24 h + 4 h resazurin, read-out: activity IC50, Tulahuen strain, trypom. forms
  IC50: 1.8 ± 0.2 µM
[6]; [21]
  selectivity index (SI), SN3 strain, trypom. forms: 53
[6]; Trypanosoma cruzi, bloodstream trypomastigotes, 24 h + 4 h resazurin, read-out: activity IC50, SN3 strain, trypom. forms
  IC50: 1.7 ± 0.2 µM
[7]; [20]
  selectivity index (SI), SN3 strain, am. forms: 53
[7]; Trypanosoma cruzi, amastigotes in Vero cells, 72 h, read-out: activity IC50, SN3 strain, am. forms
  IC50: 1.7 ± 0.4 µM
[8]; [21]
  selectivity index (SI), Arequipa strain, trypom. forms: 50
[8]; Trypanosoma cruzi, bloodstream trypomastigotes, 24 h + 4 h resazurin, read-out: activity IC50, Arequipa strain, trypom. forms
  IC50: 1.8 ± 0.1 µM
[9]; [19]
  Selectivity index (SI), epimastigotes, Arequipa strain: 19
[9]; Trypanosoma cruzi, 48 h + 24 h resazurin, read-out: Activity IC50, epimastigote form, Arequipa strain
  IC50: 4.8 ± 0.4 µM
[10]; [22]
  ALP (liver marker): + (+/-, 10-20% increase/decrease over the range)
  ALT/GPT (liver marker): ++ (++/--, 20-30% increase/decrease over the range)
  AST/GOT (liver marker): ++ (++/--, 20-30% increase/decrease over the range)
  CK-MB (heart marker): ++++ (++++/----, ˃ 40% increase/decrease over the range)
  LDH (heart marker): - (+/-, 10-20% increase/decrease over the range)
  Total bilirubin (liver marker): ++ (++/--, 20-30% increase/decrease over the range)
  Urea (kidney marker): -- (++/--, 20-30% increase/decrease over the range)
  Uric acid (kidney marker): ---- (++++/----, ˃ 40% increase/decrease over the range)
[10]; [23]
  ALP (liver marker): + (+/-, 10-20% increase/decrease over the range)
  ALT/GPT (liver marker): ++ (++/--, 20-30% increase/decrease over the range)
  AST/GOT (liver marker): + (+/-, 10-20% increase/decrease over the range)
  CK-MB (heart marker): = (=, variation ≤ 10%)
  LDH (heart marker): = (=, variation ≤ 10%)
  Total bilirubin (liver marker): = (=, variation ≤ 10%)
  Urea (kidney marker): = (=, variation ≤ 10%)
  Uric acid (kidney marker): - (+/-, 10-20% increase/decrease over the range)
[10]; [24]
  ALP (liver marker): + (+/-, 10-20% increase/decrease over the range)
  ALT/GPT (liver marker): + (+/-, 10-20% increase/decrease over the range)
  AST/GOT (liver marker): = (=, variation ≤ 10%)
  CK-MB (heart marker): ++ (++/--, 20-30% increase/decrease over the range)
  LDH (heart marker): = (=, variation ≤ 10%)
  Total bilirubin (liver marker): = (=, variation ≤ 10%)
  Urea (kidney marker): = (=, variation ≤ 10%)
  Uric acid (kidney marker): = (=, variation ≤ 10%)
[10]; [25]
  ALP (liver marker): = (=, variation ≤ 10%)
  ALT/GPT (liver marker): = (=, variation ≤ 10%)
  AST/GOT (liver marker): + (+/-, 10-20% increase/decrease over the range)
  CK-MB (heart marker): + (+/-, 10-20% increase/decrease over the range)
  LDH (heart marker): = (=, variation ≤ 10%)
  Total bilirubin (liver marker): = (=, variation ≤ 10%)
  Urea (kidney marker): = (=, variation ≤ 10%)
  Uric acid (kidney marker): = (=, variation ≤ 10%)
[11]
  CC50: 89.3 ± 7.5 µM
[12]; [20]
  selectivity index (SI), Tulahuen strain, am. forms: 33
[12]; Trypanosoma cruzi, TULAHUEN, amastigotes in Vero cells, 72 h, read-out: activity IC50, Tulahuen strain, am. forms
  IC50: 2.7 ± 0.3 µM
[13]
  IC50: 19.7 µM
[14]; [19]
  Selectivity index (SI), epimastigotes, SN3 strain: 24
[14]; Trypanosoma cruzi, 48 h + 24 h resazurin, read-out: Activity IC50, epimastigote form, SN3 strain
  IC50: 3.8 ± 0.4 µM
[15]
  inhibition of nucleic acid levels: 62%
[16]
  IC50: 9.4 µM
